The subject of data set [1] is Human lung epithelial cell line (A549). Put plainly: Cell viability by CCK-8 assay in A549 cells. In kind it is cell-based. Particulars: 1 to 80 μM, 24 h. The protocol: (§1) Human lung epithelial cell line (A549) and primary alveolar macrophage cell culture: Human lung epithelial cell line (A549, ATCC #CCL-185) was purchased from ATCC (Manassas, Va.); and primary alveolar macrophages were prepared from healthy adult animals (swine). A549 cells and primary alveolar macrophages were cultured in RPMI Media 1640 medium supplemented with 10% (v/v) FBS, 1% (v/v) L-glutamine (200 mM) and 1% (v/v) Antibiotic-Antimycotic antibiotics at 37° C. in a humidified 5% CO2 incubator.
(§2) CMC 2.24 treatment and PM2.5 exposure: The cells were subcultured when cells were grown to about 70% confluency. […]
(§3) Analysis of cell viability by CCK-8 assay: In order to study the effect of CMC2.24 in A549 cells and primary alveolar macrophages after PM2.5 exposure, cell viability was determined using Cell Counting Kit (CCK)-8 kit (Sigma-Aldrich, MO, USA) according to the manufacturer's instructions, A549 cells (0.5×10^4/well) and primary macrophages (1×10^4/well) were cultured in 96-well plates for 24 h and 6 h, respectively; the cells were then exposed to various concentrations of CMC 2.24 (i.e. 0, 1, 5, 10, 20, 30, 40, and 80 μM of CMC 2.24) in the presence or absence of 100 μg/ml PM2.5 in the media for 24 h. […] Then optical density value was measured at 450 nm using a microplate reader (Multiskan Ascent, Thermo Lab systems). […]
For orientation: Tetrazolium assays rely on reduction of a dye to a coloured formazan, in cell work by metabolically active cells.

Data set [2] concerns IL-1β relative to lipoxin A4. The experiment in a line: Experiment A: IL-1β and lipoxin A4 secreted by macrophages from treated diabetic rats. Particulars: 30 mg/kg oral once per day for 21 days, compared to untreated diabetics. In kind it is in vivo, rat. Here is the method:
In an in vivo experiment, three groups of adult male rats were established including non-diabetic controls (NDC group; n=6 rats/group); rats that were made diabetic and severely hyperglycemic by STZ injection (D+vehicle group; n=6 rats/group), and a 3rd group of rats (n=6 rats/group) in which the diabetics were orally administered CMC2.24 (30 mg/kg body weight) once per day for 21 days. At the end of the protocol, the rats were sacrificed and the peritoneal cells were collected by washing with cold 15 ml phosphate buffered saline/EDTA, The macrophages were harvested from the peritoneal wash from each rat, after 2 hours of adherence to culture plates (sterile conditions), the cells were counted and then incubated for 18 h at 37° C. in an atmosphere of 95% air/5% CO2. The conditioned media was then collected and analyzed for the resolvin, lipoxin A4, and for two inflammatory cytokines, IL-1β and IL-6. The data is expressed as a ratio of […] (pg/ml) relative to resolvin (ng/ml) secreted by the macrophages from the three experimental groups (FIG. 45A).

For data set [3] the following is noted: cited from earlier work.
The subject of another data set is Lipoxin B4. Put plainly: Lipoxin B4 ELISA in macrophage conditioned media, CFE and serum of diabetic rats. In kind it is in vivo, rat. The following applies: STZ-diabetic rats, 30 mg/kg oral once per day for 3 weeks. The protocol:
(§4) Adult rats were made diabetic by I.V. injection of streptozotocin; non-diabetic rats served as controls (n=6 rats per group; all groups). Half of the diabetics (blood glucose >500 mg/dl) were orally administered CMC2.24 (30 mg/kg) once per day for 3 weeks; untreated diabetics (D) and N rats received vehicle alone. PEs were collected at time=0 (ie, before thioglycollate injection into peritoneal cavity). Resident macrophages were isolated from PEs, then incubated in cell culture for 18 hours (370 C; 95% air/5% CO2 atmosphere). Lipoxin B4 levels were measured by ELISA (a) in cell culture serum-free conditioned media; (b) in the cell-free exudates (CFEs); and (c) in serum.
In general terms: ELISA stands for enzyme-linked immunosorbent assay.

Data set [4] deals with S. aureus-infected hTG SP-B mice. The experiment in a line: Mortality in S. aureus pneumonia in hTG SP-B mice. In kind it is in vivo, mouse. The following applies: 50 mg/kg daily. Here is the method: S. aureus-induced pneumonia model: Pilot experiments were performed to establish the S. aureus Xen36 pneumonia model using different doses of bacteria to infect mouse lung. […] Therefore, direct intratracheal inoculation of bioluminescent S. aureus Xen36 at a dose of 5×10^8/50 μl was used to infect mice in all subsequent experiment (Farnsworth, C. W. et al. 2015; Schriever, M. P. et al. 2011). In brief, hTG SP-B mice between 8 and 12 weeks old were anesthetized using intraperitoneal ketamine/xylazine (90 mg/kg ketamine, 10 mg/kg xylazine) injection. A 0.3-cm mid-line neck incision was made to expose the trachea. In the sham group, 50 μl of sterile vehicle was injected into the trachea by the same method. After infection, bio-luminescence signal was observed and quantified by an in vivo imaging system. (Xenogen-200 series, Caliper Life Sciences, Hopkinton, Mass.). Buprenorphine (0.05 mg/kg body weight) was injected for postoperative analgesia every 8-12 hrs. Mice were returned to their cages in a temperature-controlled room. (22. ° C.) with 12-h light and dark cycles and monitored every 4 h. Mice were anesthetized with isoflurane (2%) at several time points after infection (0 h, 12 h, 24 h, 28 h, 32 h, and 48 h) (Pribaz, J. R. et al, 2012; Guo, Y, et al, 2013). At 48 h after S. aureus infection, nice were sacrificed under anesthesia. […]

For data set [5] the following is noted: cell and tissue culture, in vivo studies; cited from earlier work.
Data set [6] concerns elastase/LPS-treated COPD mice. The experiment in a line: Morphometry: mean linear intercept (chord length) in COPD mice. In kind it is in vivo, mouse. The following applies: oral gavage for seven days, control 33, COPD 54. The protocol: Elastase and LPS exposure: A total of 180 male and 180 female WT mice (8-12 weeks old) were used for all experiments. Experiments were performed in triplicate for each group of age- and gender-matched mice. Animals were exposed by the intranasal route to 10 μl saline containing 1.2 units of porcine pancreatic elastase (Elastin Products, Owensville, Mo.) on Tuesday and 10 μl saline containing 7 μg (−70 endotoxin units) of LPS from Escherichia coli O26:B6 (Sigma-Aldrich, St. Louis, Mo.) on Friday of each week for four consecutive weeks.
3 mg of CMC2.24 powder were dissolved in 1 mL suspension of 2% Carboxymethyl cellulose vehicle for the daily oral administration of CMC2.24 (40 mg/kg). Vehicle alone was administered to the control group. Both CMC2.24 and vehicle control were administered once daily over the 7-day protocol by gavage (Zhang, Y. et al. 2010; Elburki, M. S. et al. 2014).
Morphometry—Air Space Enlargement: In an effort to quantitate alveolar air space enlargement, the Mean Linear Intercept (MLI) was implemented. […] Afterwards, seven equally spaced lines were then drawn within the guard zone, and directly measured by manual use of a ruler. Starting from the left, the line was scanned for any intersections with the alveolar walls and measured until the following intersection with the alveolar surface on the right. […]

The test system of another data set is Lipoxin A4. The experiment in a line: Lipoxin A4 ELISA in macrophage conditioned media, CFE and serum of diabetic rats. In kind it is in vivo, rat. The following applies: STZ-diabetic rats, 30 mg/kg oral once per day for 3 weeks. Here is the method:
as §4, with “13” for “18”, “A4” for “B4”

Data set [7] has as its system primary alveolar macrophages. The experiment in a line: Cell viability by CCK-8 assay in primary alveolar macrophages. The following applies: 1 to 80 μM, 24 h. In kind it is cell-based. The protocol:
as §1, §2, §3

The nature of a further data set: Solubility. The data set is classed as physicochemical.
Data set [8] concerns IL-6 relative to lipoxin A4. The experiment in a line: Experiment B: IL-6/lipoxin A4 ratio in LPS-exposed macrophages in culture. The data set is classed as cell-based, rat. The following applies: LPS (100 ng/ml)-exposed macrophages, CMC2.24 5 μM. Here is the method: (§5) In the second experiment, macrophages (chronic inflammatory cells), were collected and counted from the peritoneal washes of the six non-diabetic control rats. These cells were then pooled and incubated under different in vitro conditions including: group 1, control Møs; group 2, Møs incubated with lipopolysaccharide (LPS)/endotoxin at 100 ng/ml, final concentration, added to the culture media; group 3, Møs exposed to LPS but treated with CMC2.24 at a final concentration of 2 μM; and group 4, like group 3 except that CMC2.24 was increased to 5 μM (note that in this cell culture experiment, sufficient IL-6 was secreted by the LPS-exposed Møs unlike Experiment A, above).

The test system of data set [9] is IL-1β relative to lipoxin A4. Put plainly: Experiment B: IL-1β/lipoxin A4 ratio in LPS-exposed macrophages in culture. In kind it is cell-based, rat. Particulars: LPS (100 ng/ml)-exposed macrophages, CMC2.24 5 μM. Here is the method: as §5
For data set [10] the following is noted: rats with pathologically excessive MMPs, doses as high as 500 mg/kg of body weight; cited from earlier work.

Structures are written as SMILES.

For the compound `O=C(/C=C/c1ccc(O)cc1)C(C(=O)/C=C/c1ccc(O)cc1)C(=O)Nc1ccccc1` [CMC2.24], the “cell viability (CCK-8), compound alone” value in data set [1] and in data set [7] was “did not influence cell viability” each time. Besides, the “reduction of ratio IL-1β relative to lipoxin A4 secreted by macrophages” value in data set [2] was determined as 85.3%. Moreover, the “solubility relative to curcumin” value in [3] was “improved solubility”. Besides, in the data set with Lipoxin B4, the “increase of Lipoxin B4 secretion by resident peritoneal macrophages” value was found to be 12.7%. Moreover, the mortality rate in [4] (infected SP-B-C mice, control 76%, p<0.05) turned out to be 50%; in data set [4] (infected SP-B-T mice, control 33%), 32%. The “toxicity compared to the parent compound” value in [5] was “even less toxicity”. In data set [6], this compound showed an average chord length (mean linear intercept) of 35 µm. Further, in the data set with Lipoxin A4, the “increase of Lipoxin A4 in rat serum” value stood at 15.5%. Besides, in the data set with Lipoxin A4, the “increase of Lipoxin A4 in resident peritoneal cell-free exudates” value was 80.6%. Moreover, the “increase of Lipoxin A4 secretion by resident peritoneal macrophages” value with Lipoxin A4 (vs untreated diabetics) amounted to 12.7%. The “solubility relative to CMC2.5” value in “Solubility” is reported as “improved solubility”. Also, the “reduction of IL-6/lipoxin A4 ratio” value in data set [8] is given as 86%. Moreover, the “reduction of IL-1β/lipoxin A4 ratio” value in data set [9] came to 93.8%. For the same compound, the “toxicity on oral gavage” value in data set [10] is recorded as “no evidence of toxicity”.
